Assay results as given in patent publication US12201593B2, “Oral pharmaceutical formulations of bitter compounds for asthma” (Aardvark Therapeutics Inc., priority 2018, dated 2025).

How the values were obtained:
[1] = system: primary human smooth muscle (HASM) cells; assay: FLECS bronchodilator assay: single-cell contractility of HASM cells after bradykinin/carbachol-induced contraction; type: cell-based; details: for relaxation of stimulated cells: HASM from asthmatic and non-asthmatic humans, stimulated to contract with bradykinin; for effect on contraction relative to control (FIG. 2): test agent 100 μM alone, stimulating agents BK and carbachol (10 μM), negative control 0.1% DMSO
Description: FIGS. 1A, 1B, and 1C show the bronchodilator assay workflow with a […] of FLECS. Each well holds ˜1,200 micro-patterns for sensing force-generation by single cells. […] The two cases represent the positive and negative controls for the assay.
An in vitro model using human airway smooth muscle cells (HASM) from both asthmatic patients and “normal” non-asthmatic humans was stimulated to contract with bradykinin.
The assay investigated bronchodilatation properties of bitter taste agonists, individually and in combination, administered to primary human smooth muscle (HASM) cells after inducing contraction with asthmatic agent bradykinin. HASM cells were obtained from asthmatic patients and “normal” or non-asthmatic patients. Each of 4 primary HASM cell lines (2 from healthy donors; 2 from asthmatic donors) were seeded on FLECSplates and were stimulated to contract via exposure to bradykinin (BK) or carbachol. […] Accordingly, at 15 minutes following exposure to BK, the cells were treated with a denatonium salt or 3-CQL for Example 1, or combinations thereof, as well as positive controls and negative controls. The cells were imaged at 5 minute intervals beginning with a baseline reading, out to 45 minutes. The measurement was attenuation of population wide BK-induced contractility by treatment of a test compound (or combination) relative to controls.
Each well holds ˜1,200 micro-patterns for sensing force-generation by single cells. […] The two cases represent the positive and negative controls for the assay.

TAS2R subtypes = details: cited from earlier work

| SMILES | relaxation of stimulated cells [1] | effect on contraction relative to control (FIG. 2) [1] | number of TAS2R subtypes activated (TAS2R subtypes) | potency of formoterol alone (FIG. 2) ([1]; formoterol 1 μM, concentration reduced 50×) |
| --- | --- | --- | --- | --- |
| O=C(/C=C/c1ccc(O)c(O)c1)O[C@@H]1C[C@](O)(C(=O)O)C[C@@H](O)[C@H]1O [3-CQL, 3-caffeoylquinic acid] | did not relax | increase contraction relative to control |  |  |
| CC[N+](CC)(CC(=O)Nc1c(C)cccc1C)Cc1ccccc1 [DB, phenylmethyl-[2-[(2,6-dimethylphenyl)amino]-2-oxoethyl]-diethylammonium benzoate] |  | relaxing effect | 8 |  |
| CC[N+](CC)(CC(=O)Nc1c(C)cccc1C)Cc1ccccc1 [DS, denatonium saccharide] | did relax |  |  |  |
| COc1ccc(CC(C)NCC(O)c2ccc(O)c(NC=O)c2)cc1 (stereo not drawn) [formoterol, Formoterol] |  |  |  | not as potent as previous experiments |
